Test results: article PMC11988800, “A Comprehensive In Vitro and In Silico Approach for Targeting 4-Hydroxyphenyl Pyruvate Dioxygenase: Towards New Therapeutics for Alkaptonuria” (International Journal of Molecular Sciences, 2025)
Read-outs that look alike come from different tables or passages of the source. Blank lines part the entries; values can stand above or below the molecule they belong to.

Tests used:
[1] = target: T1, human 4-HPPD (Homo sapiens, UniProt P32754)
Description: (§1) 4-HPPD was initially incubated with each compound at saturating concentrations, and the exhaust medium (containing the inhibitor) was removed and replaced with fresh medium without the inhibitor, while the precursor (tyrosine) was added to the substrate. Enzyme activity was monitored by measuring the formation of ochronotic pigment consequent to the formation of HGA. Each inhibitor was analyzed in duplicate, and the analyses were repeated at least three times. In each experiment, control tests were set up as follows: a blank (control without induction), a control without inhibition, and a control with inhibition.
(§2) An optimized version of the jump dilution method was employed to evaluate the residence time of the novel candidate 4-HPPD inhibitors. […] This approach allowed precise tracking of reaction kinetics with high temporal resolution. After determining the IC50 and IC90 values for each tested compound, the enzyme was incubated with the inhibitors at concentrations corresponding to IC90. The exhaust medium containing the inhibitor was subsequently replaced with a fresh and inhibitor-free medium supplemented with tyrosine, the substrate precursor. The recovery of enzymatic activity was monitored over time using spectrophotometric analysis. This analytical approach provided precise measurements of the residence time for each inhibitor.
(§3) Each test was performed in duplicate, and the experiments were replicated at least three times. The tubes were half-capped and stirred at room temperature overnight.
(§4) The tubes were centrifuged at 2500× g for 10 min at 20 °C. The supernatant (exhaust medium) was discarded, while the pellet was resuspended in 7 mL of fresh LBK medium.
(§5) The tubes were incubated at 37 °C with stirring after taking the first sample (T0). Then, every 45 min for a period of 8 h, 220 μL were taken from each tube and placed in an Eppendorf tube, which was centrifuged at 13,000× g for 5 min at 4 °C. Subsequently, 200 μL of supernatant (pigmented medium) from each Eppendorf tube was transferred to a 96-well standard plate, and the absorbance at 405 nm was measured using a multimode plate reader (EnVision 2105, PerkinElmer Inc., Waltham, MA, USA).
(§6) Linear regression analysis was performed to calculate the slope values for each of the two curves corresponding to vs and v0 . These two parameters were then substituted into the equation below and reported for the nonlinear regression analysis of the data related to the tested compounds: Y=vsX+v0−vs /K (1−e^−KX) • Y: Absorbance value (HGA accumulation); • X: time (min); • vs : steady-state velocity; • v0: initial velocity; • K: koff .

[2] = target: T1, human 4-HPPD; test: Residence time evaluation by optimized jump dilution method in recombinant E. coli expressing human 4-HPPD
Description: as §1, §2, §3, §4, §5, §6

[3] = target: T1, human 4-HPPD; test: Inhibition assay (IC50/IC90): ochronotic pigment formation in recombinant E. coli expressing human 4-HPPD
Description: To do so, an inhibition assay was set up to test the compounds at different concentrations. The bacterial suspension was incubated in a medium containing 1 mM IPTG, 75 µM Tyr, and the tested inhibitor, monitoring the formation of the ochronotic pigment at 405 nm after 24 h.
The pre-inoculum was prepared in LB medium (Lysogeny Broth) supplemented with glucose (1% final concentration) and kanamycin sulfate (50 µg/mL final concentration). […] The pre-inoculum was incubated overnight at 37 °C under agitation. After measuring the OD600 of the pre-inoculum using LB medium as a blank, it was diluted to a final optical density of 0.1 in LB medium supplemented with kanamycin (LBK). The cell culture was shaken at 37 °C, and the OD600 was measured every 45 min until reaching the mid-log phase (0.6–0.8). Protein expression was then induced by adding isopropyl-β-D-thiogalactopyranoside (IPTG) [26, 27, 28].
Briefly, serial dilutions of the inhibitors were prepared in 96-deep well standard plates, starting from a stock solution of 10^−2 M, and then 600 µL of bacterial suspension (see Section 4.1.1) supplemented with 1 mM IPTG and 75 µg/mL Tyr were added into each well.
In parallel, the control tests were set up as follows: • - Blank: culture medium without cell suspension. • - Negative control: cell suspension without IPTG and Tyr. • - Not-Inhibited control: cell suspension supplemented with 1 mM IPTG and 75 µg/mL Tyr.
The plate was incubated on a microplate shaker at 800 rpm for 24 h.
The plates were centrifuged at 3200× g for 10 min at 4 °C. Subsequently, 150 μL of supernatant (pigmented medium) was transferred to a 96-well standard plate, and the absorbance was measured at 405 nm using a multimode plate reader (EnVision 2105, PerkinElmer Inc., Waltham, MA, USA). GraphPad Prism 8 was used to perform a nonlinear regression analysis (Log[Inhibitor] vs. response—Variable slope (four parameters)) and to obtain the inhibition curve of the compounds.

T1 sequence (P32754 whole entry): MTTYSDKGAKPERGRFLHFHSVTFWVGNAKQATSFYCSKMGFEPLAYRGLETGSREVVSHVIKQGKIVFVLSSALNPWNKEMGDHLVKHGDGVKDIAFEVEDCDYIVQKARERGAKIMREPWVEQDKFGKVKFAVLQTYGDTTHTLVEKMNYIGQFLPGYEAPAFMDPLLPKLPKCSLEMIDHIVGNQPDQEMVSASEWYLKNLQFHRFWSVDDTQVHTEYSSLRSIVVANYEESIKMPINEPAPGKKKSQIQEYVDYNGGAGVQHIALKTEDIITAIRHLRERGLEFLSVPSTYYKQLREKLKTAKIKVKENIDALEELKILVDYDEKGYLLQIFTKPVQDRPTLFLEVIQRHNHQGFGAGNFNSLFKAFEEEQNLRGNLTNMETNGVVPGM

Compound: CS(=O)(=O)c1ccc(C(=O)C2C(=O)CCCC2=O)c(Cl)c1COCC(F)(F)F [c2, tembotrione]
half-life (t 1/2) [1]: 1.0852 ± 0.27142 h
koff [2]: 0.000183 s⁻¹
residence time [2]: 94 ± 23.5 min
IC90 [3]: 500 nM

Compound: CC1(C)CC(=O)C=C(OC(=O)c2ccc(C(F)(F)F)cc2Cl)C1 [c7, 5,5-dimethyl-3-oxocyclohexenyl 2-chloro-4-(trifluoromethyl) benzoate]
half-life (t 1/2) [1]: 0.3749 ± 0.04297 h

Compound: CS(=O)(=O)c1ccc(C(=O)C2C(=O)CCCC2=O)c([N+](=O)[O-])c1 [c1, mesotrione]
koff [2]: 6.67e-05 s⁻¹
residence time [2]: 228 ± 27.6 min
residence time (τ) ([2]; derived from koff): higher residence time value than NTBC
IC90 [3]: 2000 nM

Compound: CS(=O)(=O)c1ccc(C(=O)C2C(=O)CCCC2=O)c(Cl)c1 [c3, Sulcotrione]
half-life (t 1/2) [1]: 1.3911 ± 0.66537 h
koff [2]: 0.000167 s⁻¹
residence time [2]: 120 ± 57.6 min
residence time (τ) [2]: higher residence time value than NTBC
IC90 [3]: 200 nM

Compound: CC1(C)CC(=O)C(C(=O)c2ccc([N+](=O)[O-])cc2Cl)C(=O)C1 [c4, 5,5-dimethylcyclohexane-2-(2-chloro-4-nitrobenzoyl)-1,3-dione]
half-life (t 1/2) [1]: 1.4964 ± 0.23042 h

Compound: CC1(C)CC(=O)C(C(=O)c2ccc(C(F)(F)F)cc2[N+](=O)[O-])C(=O)C1 [c5, 5,5-dimethyl-2-(2-nitro-4-(trifluoromethyl)benzoyl)cyclohexane-1,3-dione]
koff [2]: 5e-05 s⁻¹
residence time [2]: 352 ± 53.1 min
residence time (τ) ([2]; derived from koff): higher residence time value than NTBC
IC90 [3]: 8000 nM

koff [2]: 0.000133 s⁻¹
residence time [2]: 119 ± 4.87 min
residence time (τ) ([2]; derived from koff): higher residence time value than NTBC
IC90 [3]: 8000 nM
Compound: O=C1CCCC(=O)C1C(=O)c1ccc([N+](=O)[O-])cc1Cl [c6, 2-(2-chloro-4-nitrobenzoyl)1,3-cyclohexanedione]
